Assay results taken from patent publication EP4722207A1, “OXOISOINDOLINYL-SUBSTITUTED TETRAHYDROPYRIMIDINEDIONE DERIVATIVE AND USE THEREOF” (Gluetacs Therapeutics (Shanghai) Co., Ltd., priority 2023, dated 2024).

Key:
Type in all cases: cell-based
WEE1 = molecular target: T1, WEE1 (Homo sapiens, UniProt P30291+Q96SW2); test: Western-blot assay, substrate protein degradation in hPBMCs: WEE1; conditions: for substrate protein remaining % WEE1: 24 hours of compound treatment, 50 nM and 500 nM; for WEE1 substrate protein remaining %: compounds at 50 nM and 500 nM, 24 hours
T1 construct: effects of the compounds of the present disclosure on the expression of target proteins in cells; endogenous in cells; host or cells: human PBMCs (hPBMCs)
T1 sequence (P30291 whole entry): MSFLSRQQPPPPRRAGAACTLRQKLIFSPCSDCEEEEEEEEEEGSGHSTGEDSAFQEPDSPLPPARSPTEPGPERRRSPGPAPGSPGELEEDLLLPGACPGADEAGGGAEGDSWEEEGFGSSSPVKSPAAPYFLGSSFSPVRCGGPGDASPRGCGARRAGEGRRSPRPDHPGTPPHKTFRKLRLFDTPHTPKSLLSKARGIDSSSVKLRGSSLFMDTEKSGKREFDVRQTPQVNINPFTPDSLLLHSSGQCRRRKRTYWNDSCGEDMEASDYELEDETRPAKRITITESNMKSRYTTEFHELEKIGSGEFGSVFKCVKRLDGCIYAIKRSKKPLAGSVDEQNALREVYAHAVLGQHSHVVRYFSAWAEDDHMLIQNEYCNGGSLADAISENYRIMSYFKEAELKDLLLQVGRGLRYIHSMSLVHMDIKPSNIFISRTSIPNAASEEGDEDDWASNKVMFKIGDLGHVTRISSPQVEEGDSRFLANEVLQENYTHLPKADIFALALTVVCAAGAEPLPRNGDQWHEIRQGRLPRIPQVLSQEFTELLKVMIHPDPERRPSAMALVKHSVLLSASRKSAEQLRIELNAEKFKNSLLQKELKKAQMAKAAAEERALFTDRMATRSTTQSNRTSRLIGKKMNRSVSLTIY
T1 sequence (Q96SW2 whole entry): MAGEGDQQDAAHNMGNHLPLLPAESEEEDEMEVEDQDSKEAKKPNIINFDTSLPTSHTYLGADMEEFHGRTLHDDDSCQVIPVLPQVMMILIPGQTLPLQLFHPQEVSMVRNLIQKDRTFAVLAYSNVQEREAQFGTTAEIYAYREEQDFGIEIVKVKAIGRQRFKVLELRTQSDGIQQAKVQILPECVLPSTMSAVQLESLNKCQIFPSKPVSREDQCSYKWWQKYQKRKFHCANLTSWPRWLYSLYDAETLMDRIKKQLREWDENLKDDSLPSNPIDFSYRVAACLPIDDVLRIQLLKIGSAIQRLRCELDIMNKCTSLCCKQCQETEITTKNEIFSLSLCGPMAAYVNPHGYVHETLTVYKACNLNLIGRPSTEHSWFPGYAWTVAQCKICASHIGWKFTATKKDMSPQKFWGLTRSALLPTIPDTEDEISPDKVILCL
T1 sequence (Q16531 whole entry partner): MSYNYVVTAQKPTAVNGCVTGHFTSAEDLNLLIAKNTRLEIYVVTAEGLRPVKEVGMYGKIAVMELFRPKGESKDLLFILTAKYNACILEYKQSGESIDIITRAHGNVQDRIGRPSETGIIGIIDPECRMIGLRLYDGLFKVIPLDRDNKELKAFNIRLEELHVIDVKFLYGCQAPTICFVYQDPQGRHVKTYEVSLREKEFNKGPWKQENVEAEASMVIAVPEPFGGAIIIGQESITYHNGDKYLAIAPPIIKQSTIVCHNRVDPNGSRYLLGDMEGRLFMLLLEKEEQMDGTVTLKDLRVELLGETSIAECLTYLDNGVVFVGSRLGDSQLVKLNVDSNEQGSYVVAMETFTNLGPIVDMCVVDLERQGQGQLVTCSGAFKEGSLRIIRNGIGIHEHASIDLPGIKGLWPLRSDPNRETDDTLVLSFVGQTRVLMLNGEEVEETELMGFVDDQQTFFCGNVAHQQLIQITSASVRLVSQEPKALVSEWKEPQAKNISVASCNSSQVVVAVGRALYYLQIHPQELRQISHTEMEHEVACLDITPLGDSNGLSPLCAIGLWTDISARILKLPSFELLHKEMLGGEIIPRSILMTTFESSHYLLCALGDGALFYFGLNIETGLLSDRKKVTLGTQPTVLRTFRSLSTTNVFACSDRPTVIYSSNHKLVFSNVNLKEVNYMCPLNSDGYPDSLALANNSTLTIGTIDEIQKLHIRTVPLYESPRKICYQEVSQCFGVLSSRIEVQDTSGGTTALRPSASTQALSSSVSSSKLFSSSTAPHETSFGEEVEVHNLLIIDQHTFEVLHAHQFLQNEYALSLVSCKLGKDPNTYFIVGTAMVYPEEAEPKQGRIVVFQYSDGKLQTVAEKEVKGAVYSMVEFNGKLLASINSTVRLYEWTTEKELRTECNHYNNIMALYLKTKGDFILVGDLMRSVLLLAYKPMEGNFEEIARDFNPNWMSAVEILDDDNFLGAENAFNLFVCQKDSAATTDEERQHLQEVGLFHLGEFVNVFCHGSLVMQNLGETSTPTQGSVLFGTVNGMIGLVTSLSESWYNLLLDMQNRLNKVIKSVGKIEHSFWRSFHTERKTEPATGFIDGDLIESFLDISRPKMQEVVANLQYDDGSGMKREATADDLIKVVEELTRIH

IKZF1 = molecular target: T2, IKZF1 (Homo sapiens, UniProt Q13422+Q96SW2); test: Western-blot assay, substrate protein degradation in hPBMCs: IKZF1; conditions: for substrate protein remaining % IKZF1: 24 hours of compound treatment, 50 nM and 500 nM; for IKZF1 substrate protein remaining %: compounds at 50 nM and 500 nM, 24 hours
T2 construct: effects of the compounds of the present disclosure on the expression of target proteins in cells; endogenous in cells; host or cells: human PBMCs (hPBMCs)

IKZF2 = molecular target: T3, IKZF2 (Homo sapiens, UniProt Q96SW2+Q9UKS7); test: Western-blot assay, substrate protein degradation in hPBMCs: IKZF2; conditions: for substrate protein remaining % IKZF2: 24 hours of compound treatment, 50 nM and 500 nM; for IKZF2 substrate protein remaining %: compounds at 50 nM and 500 nM, 24 hours
T3 construct: effects of the compounds of the present disclosure on the expression of target proteins in cells; endogenous in cells; host or cells: human PBMCs (hPBMCs)
T3 sequence (Q9UKS7 whole entry): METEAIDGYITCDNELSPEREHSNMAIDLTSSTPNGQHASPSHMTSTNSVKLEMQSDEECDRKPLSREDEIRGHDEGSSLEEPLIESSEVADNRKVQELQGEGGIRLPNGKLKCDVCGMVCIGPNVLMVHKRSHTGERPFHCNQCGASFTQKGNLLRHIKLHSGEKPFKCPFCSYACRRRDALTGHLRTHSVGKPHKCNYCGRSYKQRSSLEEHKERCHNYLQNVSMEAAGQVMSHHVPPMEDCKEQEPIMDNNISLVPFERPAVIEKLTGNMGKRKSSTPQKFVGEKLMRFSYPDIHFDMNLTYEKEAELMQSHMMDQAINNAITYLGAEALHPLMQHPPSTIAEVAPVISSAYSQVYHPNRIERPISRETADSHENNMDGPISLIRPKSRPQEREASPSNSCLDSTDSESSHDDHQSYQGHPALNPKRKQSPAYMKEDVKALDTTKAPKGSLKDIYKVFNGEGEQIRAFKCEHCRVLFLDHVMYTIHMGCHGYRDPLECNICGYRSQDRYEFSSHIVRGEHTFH
T3 sequence (Q96SW2 whole entry): as the sequence (Q96SW2 whole entry) above
T3 sequence (Q16531 whole entry partner): as the sequence (Q16531 whole entry partner) above

IKZF3 = molecular target: T4, IKZF3 (Homo sapiens, UniProt Q96SW2+Q9UKT9); test: Western-blot assay, substrate protein degradation in hPBMCs: IKZF3; conditions: for substrate protein remaining % IKZF3: 24 hours of compound treatment, 50 nM and 500 nM; for IKZF3 substrate protein remaining %: compounds at 50 nM and 500 nM, 24 hours
T4 construct: effects of the compounds of the present disclosure on the expression of target proteins in cells; endogenous in cells; host or cells: human PBMCs (hPBMCs)
T4 sequence (Q9UKT9 whole entry): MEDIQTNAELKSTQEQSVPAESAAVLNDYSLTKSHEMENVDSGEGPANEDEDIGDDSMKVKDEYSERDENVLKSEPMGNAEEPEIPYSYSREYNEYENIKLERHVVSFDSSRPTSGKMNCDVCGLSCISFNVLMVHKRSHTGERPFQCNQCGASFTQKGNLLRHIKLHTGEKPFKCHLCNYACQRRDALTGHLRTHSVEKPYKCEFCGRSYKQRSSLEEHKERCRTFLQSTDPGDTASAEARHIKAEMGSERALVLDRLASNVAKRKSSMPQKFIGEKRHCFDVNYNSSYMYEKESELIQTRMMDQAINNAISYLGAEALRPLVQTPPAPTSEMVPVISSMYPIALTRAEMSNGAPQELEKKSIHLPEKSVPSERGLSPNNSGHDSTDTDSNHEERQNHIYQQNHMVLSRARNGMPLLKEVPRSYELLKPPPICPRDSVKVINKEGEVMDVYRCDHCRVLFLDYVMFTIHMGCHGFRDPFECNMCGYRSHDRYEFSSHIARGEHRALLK
T4 sequence (Q96SW2 whole entry): as the sequence (Q96SW2 whole entry) above
T4 sequence (Q16531 whole entry partner): as the sequence (Q16531 whole entry partner) above

CK1α = molecular target: T5, CK1α (Homo sapiens, UniProt P48729+Q96SW2); test: Western-blot assay, substrate protein degradation in hPBMCs: CK1α; conditions: for substrate protein remaining % CK1α: 24 hours of compound treatment, 50 nM and 500 nM; for CK1α substrate protein remaining %: compounds at 50 nM and 500 nM, 24 hours
T5 construct: effects of the compounds of the present disclosure on the expression of target proteins in cells; endogenous in cells; host or cells: human PBMCs (hPBMCs)
T5 sequence (P48729 whole entry): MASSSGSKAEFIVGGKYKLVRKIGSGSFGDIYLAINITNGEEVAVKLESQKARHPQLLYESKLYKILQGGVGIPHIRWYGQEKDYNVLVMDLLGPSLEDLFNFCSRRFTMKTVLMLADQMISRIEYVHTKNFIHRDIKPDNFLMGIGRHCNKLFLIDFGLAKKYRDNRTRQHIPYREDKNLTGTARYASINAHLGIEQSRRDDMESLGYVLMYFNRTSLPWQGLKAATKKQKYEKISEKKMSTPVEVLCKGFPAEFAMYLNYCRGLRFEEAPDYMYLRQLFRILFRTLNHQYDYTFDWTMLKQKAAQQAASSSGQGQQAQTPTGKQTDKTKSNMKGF
T5 sequence (Q96SW2 whole entry): as the sequence (Q96SW2 whole entry) above
T5 sequence (Q16531 whole entry partner): as the sequence (Q16531 whole entry partner) above

GSPT1 = molecular target: T6, GSPT1 (Homo sapiens, UniProt P15170+Q96SW2); test: Western-blot assay, substrate protein degradation in hPBMCs: GSPT1; conditions: for substrate protein remaining % GSPT1: 24 hours of compound treatment, 50 nM and 500 nM; for GSPT1 substrate protein remaining %: compounds at 50 nM and 500 nM, 24 hours
T6 construct: effects of the compounds of the present disclosure on the expression of target proteins in cells; endogenous in cells; host or cells: human PBMCs (hPBMCs)
T6 sequence (P15170 whole entry): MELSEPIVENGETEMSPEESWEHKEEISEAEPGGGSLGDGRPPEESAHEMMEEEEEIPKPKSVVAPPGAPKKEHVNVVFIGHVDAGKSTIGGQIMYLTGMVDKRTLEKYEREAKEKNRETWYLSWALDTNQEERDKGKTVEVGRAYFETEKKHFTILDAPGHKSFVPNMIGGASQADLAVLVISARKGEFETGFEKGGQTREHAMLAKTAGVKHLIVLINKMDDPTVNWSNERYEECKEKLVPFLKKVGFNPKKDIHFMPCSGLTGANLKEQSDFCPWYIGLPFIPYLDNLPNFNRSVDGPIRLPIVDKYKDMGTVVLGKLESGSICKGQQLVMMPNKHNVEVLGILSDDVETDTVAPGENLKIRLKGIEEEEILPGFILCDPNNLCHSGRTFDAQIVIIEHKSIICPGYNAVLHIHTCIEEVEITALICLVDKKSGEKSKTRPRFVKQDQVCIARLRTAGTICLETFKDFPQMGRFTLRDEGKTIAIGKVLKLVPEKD
T6 sequence (Q96SW2 whole entry): as the sequence (Q96SW2 whole entry) above
T6 sequence (Q16531 whole entry partner): as the sequence (Q16531 whole entry partner) above

| Compound | substrate protein remaining % WEE1 (WEE1) | substrate protein remaining % IKZF1 (IKZF1) | substrate protein remaining % IKZF2 (IKZF2) | substrate protein remaining % IKZF3 (IKZF3) | substrate protein remaining % CK1α (CK1α) | substrate protein remaining % GSPT1 (GSPT1) | WEE1 substrate protein remaining % (WEE1) | IKZF1 substrate protein remaining % (IKZF1) | IKZF2 substrate protein remaining % (IKZF2) | IKZF3 substrate protein remaining % (IKZF3) | CK1α substrate protein remaining % (CK1α) | GSPT1 substrate protein remaining % (GSPT1) |
| --- | --- | --- | --- | --- | --- | --- | --- | --- | --- | --- | --- | --- |
| O=C1CCN(N2Cc3cc(CN4CCC(N5CCOc6cc(F)ccc65)CC4)ccc3C2=O)C(=O)N1 [GT-07585, 1-(5-((4-(7-fluoro-2,3-dihydro-4H-benzo[b][1,4]oxazin-4-yl)piperidin-1-yl)methyl)-1-oxoisoindolin-2-yl)dihydropyrimidine-2,4(1H,3H)-dione] | A (0% ≤ substrate protein remaining % ≤ 80%) | A (0% ≤ substrate protein remaining % ≤ 80%) | B (80%< substrate protein remaining %≤ 100%) | B (80%< substrate protein remaining %≤ 100%) | B (80%< substrate protein remaining %≤ 100%) | A (0% ≤ substrate protein remaining % ≤ 80%) | – | – | – | – | – | – |
| O=C1CCN(N2C(=O)c3ccc(CN4CCN(C(c5ccccn5)c5ccccn5)CC4)cc3C2=O)C(=O)N1 [GT-06379, 5-((4-(di(pyridin-2-yl)methyl)piperazin-1-yl)methyl)-2-(2,4-dioxotetrahydropyrimidin-1(2H)-yl)isoindoline-1,3-dione] | – | – | – | – | – | – | A ("A" is defined as 0% ≤ substrate protein remaining % ≤ 80%) | B ("B" is defined as 80%< substrate protein remaining %≤ 100%) | A ("A" is defined as 0% ≤ substrate protein remaining % ≤ 80%) | A ("A" is defined as 0% ≤ substrate protein remaining % ≤ 80%) | B ("B" is defined as 80%< substrate protein remaining %≤ 100%) | A ("A" is defined as 0% ≤ substrate protein remaining % ≤ 80%) |
| O=C1CCN(N2Cc3cc(CN4CCN(Cc5ccccc5-c5ccc(Cl)cc5)CC4)ccc3C2=O)C(=O)N1 [GT-06433, 1-(5-((4-((4'-chloro-[1,1'-biphenyl]-2-yl)methyl)piperazin-1-yl)methyl)-1-oxoisoindolin-2-yl)dihydropyrimidine-2,4(1H,3H)-dione] | – | – | – | – | – | – | A ("A" is defined as 0% ≤ substrate protein remaining % ≤ 80%) | A ("A" is defined as 0% ≤ substrate protein remaining % ≤ 80%) | A ("A" is defined as 0% ≤ substrate protein remaining % ≤ 80%) | A ("A" is defined as 0% ≤ substrate protein remaining % ≤ 80%) | B ("B" is defined as 80%< substrate protein remaining %≤ 100%) | A ("A" is defined as 0% ≤ substrate protein remaining % ≤ 80%) |
| O=C1CCN(N2Cc3cc(CN4CCC(C5CCOc6cc(F)ccc65)CC4)ccc3C2=O)C(=O)N1 (stereo not drawn) [GT-07587, 1-(5-((4-(7-fluorochroman-4-yl)piperidin-1-yl)methyl)-1-oxoisoindolin-2-yl)dihydropyrimidine-2,4(1H,3H)-dione] | A (0% ≤ substrate protein remaining % ≤ 80%) | A (0% ≤ substrate protein remaining % ≤ 80%) | B (80%< substrate protein remaining %≤ 100%) | B (80%< substrate protein remaining %≤ 100%) | B (80%< substrate protein remaining %≤ 100%) | A (0% ≤ substrate protein remaining % ≤ 80%) | – | – | – | – | – | – |
| O=C1CCN(N2Cc3cc(CN4CCC(c5ccc(Cl)cc5)CC4)ccc3C2=O)C(=O)N1 [GT-06888, 1-(5-((4-(4-chlorophenyl)piperidin-1-yl)methyl)-1-oxoisoindolin-2-yl)dihydropyrimidine-2,4(1H,3H)-dione] | – | – | – | – | – | – | A ("A" is defined as 0% ≤ substrate protein remaining % ≤ 80%) | B ("B" is defined as 80%< substrate protein remaining %≤ 100%) | A ("A" is defined as 0% ≤ substrate protein remaining % ≤ 80%) | B ("B" is defined as 80%< substrate protein remaining %≤ 100%) | B ("B" is defined as 80%< substrate protein remaining %≤ 100%) | A ("A" is defined as 0% ≤ substrate protein remaining % ≤ 80%) |
| CC1(C)CN(Cc2ccc3c(c2)C(=O)N(N2CCC(=O)NC2=O)C3=O)CCN1C(c1ccccc1)c1ccccc1 [GT-06385, 5-((4-benzhydryl-3,3-dimethylpiperazin-1-yl)methyl)-2-(2,4-dioxotetrahydropyrimidin-1(2H)-yl)isoindoline-1,3-dione] | – | – | – | – | – | – | A ("A" is defined as 0% ≤ substrate protein remaining % ≤ 80%) | B ("B" is defined as 80%< substrate protein remaining %≤ 100%) | B ("B" is defined as 80%< substrate protein remaining %≤ 100%) | A ("A" is defined as 0% ≤ substrate protein remaining % ≤ 80%) | B ("B" is defined as 80%< substrate protein remaining %≤ 100%) | A ("A" is defined as 0% ≤ substrate protein remaining % ≤ 80%) |
| O=C1CCN(N2Cc3cc(CN4CCN(c5ccc(Br)cc5)CC4)ccc3C2=O)C(=O)N1 [GT-06768, 1-(5-((4-(4-bromophenyl)piperazin-1-yl)methyl)-1-oxoisoindolin-2-yl)dihydropyrimidine-2,4(1H,3H)-dione] | – | – | – | – | – | – | A ("A" is defined as 0% ≤ substrate protein remaining % ≤ 80%) | B ("B" is defined as 80%< substrate protein remaining %≤ 100%) | B ("B" is defined as 80%< substrate protein remaining %≤ 100%) | A ("A" is defined as 0% ≤ substrate protein remaining % ≤ 80%) | A ("A" is defined as 0% ≤ substrate protein remaining % ≤ 80%) | A ("A" is defined as 0% ≤ substrate protein remaining % ≤ 80%) |
| O=C1CCN(N2C(=O)c3ccc(CN4CCC(c5ccsc5)CC4)cc3C2=O)C(=O)N1 [GT-07420, 2-(2,4-dioxotetrahydropyrimidin-1(2H)-yl)-5-((4-(thiophen-3-yl)piperidin-1-yl)methyl)isoindoline-1,3-dione] | B (80%< substrate protein remaining %≤ 100%) | B (80%< substrate protein remaining %≤ 100%) | B (80%< substrate protein remaining %≤ 100%) | B (80%< substrate protein remaining %≤ 100%) | A (0% ≤ substrate protein remaining % ≤ 80%) | A (0% ≤ substrate protein remaining % ≤ 80%) | – | – | – | – | – | – |
